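Growth conditions: 96-well plates. Treatment: test compound, 48 hours, 5 concentrations. Analysis: linear interpolation between bracketing concentrations; unreached endpoints set to highest concentration. At the TGI there is no net growth.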
Legend:
Test in all cases: NCI anticancer screen, dose series, 48 h
786-0 renal = test system: 786-0 renal
A498 renal = test system: A498 renal
A549 NSCLC = test system: A549 NSCLC
ACHN renal = test system: ACHN renal
BT-549 breast = test system: BT-549 breast
CAKI-1 renal = test system: CAKI-1 renal
CCRF-CEM leukemia = test system: CCRF-CEM leukemia
COLO 205 colon = test system: COLO 205 colon
DU-145 prostate = test system: DU-145 prostate
EKVX NSCLC = test system: EKVX NSCLC
HCC-2998 colon = test system: HCC-2998 colon
HCT-116 colon = test system: HCT-116 colon
HCT-15 colon = test system: HCT-15 colon
HL-60(TB) leukemia = test system: HL-60(TB) leukemia
HOP-62 NSCLC = test system: HOP-62 NSCLC
HOP-92 NSCLC = test system: HOP-92 NSCLC
HS 578T breast = test system: HS 578T breast
HT29 colon = test system: HT29 colon
IGROV1 ovarian = test system: IGROV1 ovarian
K-562 leukemia = test system: K-562 leukemia
KM12 colon = test system: KM12 colon
LOX IMVI melanoma = test system: LOX IMVI melanoma
M14 melanoma = test system: M14 melanoma
MALME-3M melanoma = test system: MALME-3M melanoma
MCF7 breast = test system: MCF7 breast
MDA-MB-231 breast = test system: MDA-MB-231 breast
MDA-MB-435 = test system: MDA-MB-435
MDA-N = test system: MDA-N
MOLT-4 leukemia = test system: MOLT-4 leukemia
NCI-H226 lung = test system: NCI-H226 lung
NCI-H23 lung = test system: NCI-H23 lung
NCI-H460 lung = test system: NCI-H460 lung
NCI-H522 lung = test system: NCI-H522 lung
NCI/ADR-RES ovarian = test system: NCI/ADR-RES ovarian
OVCAR-3 ovarian = test system: OVCAR-3 ovarian
OVCAR-4 ovarian = test system: OVCAR-4 ovarian
OVCAR-5 ovarian = test system: OVCAR-5 ovarian
OVCAR-8 ovarian = test system: OVCAR-8 ovarian
PC-3 prostate = test system: PC-3 prostate
RPMI-8226 leukemia = test system: RPMI-8226 leukemia
RXF 393 renal = test system: RXF 393 renal
SF-268 CNS = test system: SF-268 CNS
SF-295 CNS = test system: SF-295 CNS
SF-539 CNS = test system: SF-539 CNS
SK-MEL-2 melanoma = test system: SK-MEL-2 melanoma
SK-MEL-28 melanoma = test system: SK-MEL-28 melanoma
SK-MEL-5 melanoma = test system: SK-MEL-5 melanoma
SK-OV-3 ovarian = test system: SK-OV-3 ovarian
SN12C renal = test system: SN12C renal
SNB-19 CNS = test system: SNB-19 CNS
SNB-75 CNS = test system: SNB-75 CNS
SR leukemia = test system: SR leukemia
SW-620 colon = test system: SW-620 colon
T-47D breast = test system: T-47D breast
TK-10 renal = test system: TK-10 renal
U251 CNS = test system: U251 CNS
UACC-257 melanoma = test system: UACC-257 melanoma
UACC-62 melanoma = test system: UACC-62 melanoma
UO-31 renal = test system: UO-31 renal

With CSc1ccc(NC(=O)C2CCCCC2C(=O)O)cc1 (configuration not stated) the TGI (786-0 renal) was > 100 µM, the TGI (A498 renal) was > 100 µM and the TGI (A549 NSCLC) was > 100 µM. The TGI (ACHN renal) was > 100 µM, the TGI (BT-549 breast) was > 100 µM and the TGI (CAKI-1 renal) was > 100 µM. For the same compound, the TGI (CCRF-CEM leukemia) was > 100 µM, the TGI (COLO 205 colon) was > 100 µM and the TGI (DU-145 prostate) was > 100 µM. For the same compound, the TGI (EKVX NSCLC) was > 100 µM, the TGI (HCC-2998 colon) was > 100 µM and the TGI (HCT-116 colon) was > 100 µM. For the same compound, the TGI (HCT-15 colon) was > 100 µM, the TGI (HL-60(TB) leukemia) was > 100 µM and the TGI (HOP-62 NSCLC) was > 100 µM. The TGI (HOP-92 NSCLC) was > 100 µM, the TGI (HS 578T breast) was > 100 µM and the TGI (HT29 colon) was > 100 µM. The TGI (IGROV1 ovarian) was > 100 µM, the TGI (K-562 leukemia) was > 100 µM and the TGI (KM12 colon) was > 100 µM. For the same compound, the TGI (LOX IMVI melanoma) was > 100 µM, the TGI (M14 melanoma) was > 100 µM and the TGI (MALME-3M melanoma) was > 100 µM. The TGI (MCF7 breast) was > 100 µM, the TGI (MDA-MB-231 breast) was > 100 µM and the TGI (MDA-MB-435) was > 100 µM. The TGI (MDA-N) was > 100 µM, the TGI (MOLT-4 leukemia) was > 100 µM and the TGI (NCI-H226 lung) was > 100 µM. The TGI (NCI-H23 lung) was > 100 µM, the TGI (NCI-H460 lung) was > 100 µM and the TGI (NCI-H522 lung) was > 100 µM. For the same compound, the TGI (NCI/ADR-RES ovarian) was > 100 µM, the TGI (OVCAR-3 ovarian) was > 100 µM and the TGI (OVCAR-4 ovarian) was > 100 µM. The TGI (OVCAR-5 ovarian) was > 100 µM, the TGI (OVCAR-8 ovarian) was > 100 µM and the TGI (PC-3 prostate) was > 100 µM. For the same compound, the TGI (RPMI-8226 leukemia) was > 100 µM, the TGI (RXF 393 renal) was > 100 µM and the TGI (SF-268 CNS) was > 100 µM. The TGI (SF-295 CNS) was > 100 µM, the TGI (SF-539 CNS) was > 100 µM and the TGI (SK-MEL-2 melanoma) was > 100 µM. The TGI (SK-MEL-28 melanoma) was > 100 µM, the TGI (SK-MEL-5 melanoma) was > 100 µM and the TGI (SK-OV-3 ovarian) was > 100 µM. The TGI (SN12C renal) was > 100 µM, the TGI (SNB-19 CNS) was > 100 µM and the TGI (SNB-75 CNS) was > 100 µM. The TGI (SR leukemia) was > 100 µM, the TGI (SW-620 colon) was > 100 µM and the TGI (T-47D breast) was > 100 µM. For the same compound, the TGI (TK-10 renal) was > 100 µM, the TGI (U251 CNS) was > 100 µM and the TGI (UACC-257 melanoma) was > 100 µM. The TGI (UACC-62 melanoma) was > 100 µM and the TGI (UO-31 renal) was > 100 µM.
For O=C(NC(N1CCN(c2cc3c(cc2F)c(=O)c(C(=O)O)cn3C2CC2)CC1)(C(F)(F)F)C(F)(F)F)c1ccccc1, the TGI (786-0 renal) was > 100 µM, the TGI (A498 renal) was 94.4 µM and the TGI (A549 NSCLC) was > 100 µM. For the same compound, the TGI (ACHN renal) was > 100 µM, the TGI (BT-549 breast) was > 100 µM and the TGI (CAKI-1 renal) was 85.4 µM. For the same compound, the TGI (CCRF-CEM leukemia) was 72.3 µM, the TGI (COLO 205 colon) was 34.8 µM and the TGI (DU-145 prostate) was > 100 µM. The TGI (EKVX NSCLC) was > 100 µM, the TGI (HCC-2998 colon) was 66 µM and the TGI (HCT-116 colon) was > 100 µM. For the same compound, the TGI (HCT-15 colon) was 61.6 µM, the TGI (HL-60(TB) leukemia) was 53.8 µM and the TGI (HOP-62 NSCLC) was > 100 µM. For the same compound, the TGI (HOP-92 NSCLC) was 93.3 µM, the TGI (HS 578T breast) was > 100 µM and the TGI (HT29 colon) was > 100 µM. For the same compound, the TGI (IGROV1 ovarian) was > 100 µM, the TGI (K-562 leukemia) was > 100 µM and the TGI (KM12 colon) was 84.4 µM. For the same compound, the TGI (LOX IMVI melanoma) was > 100 µM, the TGI (M14 melanoma) was > 100 µM and the TGI (MALME-3M melanoma) was 77.5 µM. For the same compound, the TGI (MCF7 breast) was > 100 µM, the TGI (MDA-MB-231 breast) was 70.6 µM and the TGI (MDA-MB-435) was > 100 µM. The TGI (MDA-N) was > 100 µM, the TGI (MOLT-4 leukemia) was 62 µM and the TGI (NCI-H226 lung) was > 100 µM. The TGI (NCI-H23 lung) was 89.2 µM, the TGI (NCI-H460 lung) was > 100 µM and the TGI (NCI-H522 lung) was 38.7 µM. The TGI (NCI/ADR-RES ovarian) was > 100 µM, the TGI (OVCAR-3 ovarian) was 96.1 µM and the TGI (OVCAR-4 ovarian) was > 100 µM. The TGI (OVCAR-5 ovarian) was 65.4 µM, the TGI (OVCAR-8 ovarian) was > 100 µM and the TGI (PC-3 prostate) was > 100 µM. The TGI (RPMI-8226 leukemia) was 69.9 µM, the TGI (RXF 393 renal) was > 100 µM and the TGI (SF-268 CNS) was > 100 µM. For the same compound, the TGI (SF-295 CNS) was > 100 µM, the TGI (SF-539 CNS) was 80.8 µM and the TGI (SK-MEL-2 melanoma) was > 100 µM. For the same compound, the TGI (SK-MEL-28 melanoma) was > 100 µM, the TGI (SK-MEL-5 melanoma) was 62.9 µM and the TGI (SK-OV-3 ovarian) was 94.1 µM. For the same compound, the TGI (SN12C renal) was > 100 µM, the TGI (SNB-19 CNS) was > 100 µM and the TGI (SNB-75 CNS) was > 100 µM. For the same compound, the TGI (SR leukemia) was 87.2 µM, the TGI (SW-620 colon) was > 100 µM and the TGI (T-47D breast) was > 100 µM. For the same compound, the TGI (TK-10 renal) was 87.4 µM, the TGI (U251 CNS) was > 100 µM and the TGI (UACC-257 melanoma) was 80.8 µM. For the same compound, the TGI (UACC-62 melanoma) was > 100 µM and the TGI (UO-31 renal) was 81.5 µM.
With CCCCCOc1ccc(Nc2c(O)c3c(c(O)c2Cl)C(=O)C=CC3=O)cc1 the TGI (786-0 renal) was > 10 µM, the TGI (A498 renal) was > 10 µM and the TGI (A549 NSCLC) was > 10 µM. For the same compound, the TGI (ACHN renal) was > 10 µM, the TGI (BT-549 breast) was > 6.94 µM and the TGI (CAKI-1 renal) was > 10 µM. For the same compound, the TGI (CCRF-CEM leukemia) was > 10 µM, the TGI (COLO 205 colon) was > 8.02 µM and the TGI (DU-145 prostate) was > 10 µM. The TGI (EKVX NSCLC) was > 10 µM, the TGI (HCC-2998 colon) was > 7.84 µM and the TGI (HCT-116 colon) was > 10 µM. For the same compound, the TGI (HCT-15 colon) was 3.93 µM, the TGI (HL-60(TB) leukemia) was 3.79 µM and the TGI (HOP-62 NSCLC) was > 10 µM. For the same compound, the TGI (HOP-92 NSCLC) was > 9.51 µM, the TGI (HS 578T breast) was 7.39 µM and the TGI (HT29 colon) was > 10 µM. The TGI (IGROV1 ovarian) was > 10 µM, the TGI (K-562 leukemia) was > 9.65 µM and the TGI (KM12 colon) was > 10 µM. For the same compound, the TGI (LOX IMVI melanoma) was 3.72 µM, the TGI (M14 melanoma) was > 10 µM and the TGI (MALME-3M melanoma) was > 6.38 µM. For the same compound, the TGI (MCF7 breast) was > 10 µM, the TGI (MDA-MB-231 breast) was > 8.25 µM and the TGI (MDA-MB-435) was 5.53 µM. The TGI (MDA-N) was > 9.3 µM, the TGI (MOLT-4 leukemia) was > 10 µM and the TGI (NCI-H226 lung) was > 10 µM. The TGI (NCI-H23 lung) was > 6.51 µM, the TGI (NCI-H460 lung) was > 10 µM and the TGI (NCI-H522 lung) was 5.39 µM. For the same compound, the TGI (NCI/ADR-RES ovarian) was > 10 µM, the TGI (OVCAR-3 ovarian) was > 6.54 µM and the TGI (OVCAR-4 ovarian) was 9.97 µM. For the same compound, the TGI (OVCAR-5 ovarian) was > 10 µM, the TGI (OVCAR-8 ovarian) was > 5.87 µM and the TGI (PC-3 prostate) was > 10 µM. The TGI (RPMI-8226 leukemia) was 7.76 µM, the TGI (RXF 393 renal) was > 10 µM and the TGI (SF-268 CNS) was > 10 µM. The TGI (SF-295 CNS) was > 10 µM, the TGI (SF-539 CNS) was > 10 µM and the TGI (SK-MEL-2 melanoma) was > 10 µM. For the same compound, the TGI (SK-MEL-28 melanoma) was 8.66 µM, the TGI (SK-MEL-5 melanoma) was > 10 µM and the TGI (SK-OV-3 ovarian) was > 10 µM. For the same compound, the TGI (SN12C renal) was > 10 µM, the TGI (SNB-19 CNS) was > 10 µM and the TGI (SNB-75 CNS) was > 10 µM. The TGI (SR leukemia) was 6.99 µM, the TGI (SW-620 colon) was > 10 µM and the TGI (T-47D breast) was > 9.64 µM. For the same compound, the TGI (TK-10 renal) was > 10 µM, the TGI (U251 CNS) was > 10 µM and the TGI (UACC-257 melanoma) was > 10 µM. For the same compound, the TGI (UACC-62 melanoma) was > 10 µM and the TGI (UO-31 renal) was > 9.67 µM.
